Test results published in patent US20100249402A1, “NOVEL BENZAMIDINE DERIVATIVES, PROCESS FOR THE PREPARATION THEREOF AND PHARMACEUTICAL COMPOSITION FOR PREVENTING OR TREATING OSTEPOROSIS COMPRISING THE SAME” (DONG WHA PHARMACEUTICAL CO. LTD., priority 2007, published 2010).
Where two headings read alike, the source gives them in different places.

Legend:
HOS = experiment: Cytotoxicity test (MTT), HOS; assay type: cell-based; conditions: 10^−6 M, cultured for 72 hrs, in comparison with the control group
Experimental: (§1) The cytotoxic effect of the benzamidine derivative of the present invention was evaluated by carrying out the experiment described below.
(§2) The test substance was diluted in an appropriate solvent at a concentration of 10^−2 M. This substance was diluted in an appropriate culture medium for the cells used in the cytotoxicity test to a concentration of 10^−6M, and loaded into a 96-well plate in 100 μl per well. The cell lines to be used in the cytotoxicity test were plated on a 96-well plate in a dose of 1.0×10^4 cell/100 μl per well, and cultured for 72 hrs. 25 μl of MTT[3-(4,5-dimethyl-2-thiazolyl)-2,5-diphenyl-2H-tetrazolium bromide] dissolved in PBS (2 mg/mL) were added before 4 hrs of the end of culture. After completion of the reaction, the plates were centrifuged, the medium was discarded and 100 μl of DMSO was added to dissolve formazan. Finally, the absorbance of the developed plates was measured at 540 nm. The survival rates of the cells were expressed as % concentration values in comparison with the control group.

calvaria = experiment: Cytotoxicity test (MTT), calvaria; assay type: cell-based; conditions: 10^−6 M, cultured for 72 hrs, in comparison with the control group
Experimental: as §1, §2

[1] = system: osteoclast differentiation; experiment: Inhibitory effects on osteoclast differentiation (bone marrow cell/osteoblast co-culture, TRAP staining); assay type: cell-based, mice; conditions: for inhibition at 1 µM: Mus musculus, Osteoclast, 168 h, read-out: Inhibition of osteoclast differentiation (%)
Experimental: The effect of the benzamidine derivative of the present invention on osteoclast formation and differentiation process was evaluated via co-culture with an osteoblast.
Tibia was aseptically ectomized from 6 to 8-week-old male ddY mice to harvest bone marrow cells by using a syringe (21G, Korea Green Cross). The bone marrow cells were suspended in 5 mL of an α-MEM medium (Gibco BRL Co., supplemented with sodium bicarbonate (2.0 g/L), streptomycin (100 mg/L) and penicillin ([…]), filtered and then sterilized). The harvested cells were centrifuged at 600×g for 5 minutes to collect the whole quantity. To remove the red blood cells in the bone marrow cells, 3 mL of Tris HCl (0.83% NH4Cl, pH 7.5) was added and well mixed. After centrifugation, the numbers of the eukaryotic cells in the harvested bone marrow cells were counted, and then immediately used for a co-culture system.
The progenitor bone and the parietal bone were aseptically ectomized from 1 to 2-day-old neonatal ICR mice, washed with a phosphate butter solution (PBS), and treated with a mixed enzyme solution (0.2% collagenase and 0.1% dispase) six to seven times (10, 10, 10, 20, 20 and 20 min), and then 3 to 6 groups of the cells, in which a large volume of cells having osteoblastic characteristics were contained, were intensively collected, and washed with medium (serum-free α-MEM). The washed cells were cultured in the α-MEM medium containing 10% FBS for 2 to 3 days. After sub-culturing, the collected cells were used for this experiment, and diluted to a concentration of 1×10^6 cells/mL for storage at −70° C.
The benzamidine derivative of the present invention was dissolved in a sterile distilled water or ethanol to be diluted to a desired concentration. The final volume of the sample added to the cell culture medium was set at a ratio of 1:1000.
The bone marrow cells prepared in the above 1-1 and the osteoblast were co-cultured. Both the bone marrow cells (25,000 cells/cm^2) and the osteoblast (10,000 cells/cm^2) were plated in a 96-well plate using α-MEM medium containing FBS, and then cultured with the samples to be tested for 7 days. Differentiation factors, such as dexamethasone (10^−7 M) and vitamin D (10^−8 M), were also co-added to the medium from the first day of cultivation. The medium was changed with a fresh media containing a mixture of the samples and the differentiation factors every 2 to 3 days.
TRAP was used as a marker to measure the matured osteoclast in consideration of its characteristics showing a positive reaction to a TRAP staining solution.
The TRAP staining solution was prepared in such the manner that 5 mg of naphthol AS-MS phosphate (sigma N-4875) as a substrate and 25 mg of a coloring agent (Fast Red Violet LB salt) were dissolved in N,N-dimethylformamide (about 0.5 mL). 50 ml of a 0.1 N […] buffer solution containing 50 mM tartaric acid (pH 5.0) was added thereto, and the mixture was stored in a refrigerator prior to use as a staining solution.
After culturing the cells for 7 days, the medium was removed from the wells, the cells were once washed with PBS, and then fixed with PBS containing 10% formalin for 2 to 5 min. The cells were fixed again in a mixed solution of ethanol and acetone (1/1) for about 1 min, and dried off. The cells were further treated by the TRAP staining solution for 15 minutes, and washed with water and dried off. The osteoclasts with 3 or more nuclei showing a TRAP-positive reaction were counted under a microscopic examination. Each of tests was confirmed at least three times. The inhibitory effect on osteoclast differentiation of each experimental group, relative to negative controls, was expressed as a percentage (%).

MC3T3-E1 = experiment: Cytotoxicity test (MTT), MC3T3-E1; assay type: cell-based; conditions: 10^−6 M, cultured for 72 hrs, in comparison with the control group
Experimental: as §1, §2

[2] = 1 μm, 7 days co-culture, TRAP-positive osteoclasts with 3 or more nuclei, relative to negative controls

`CN(Cc1ccccc1)c1nc(-c2ccc(OCCCCCOc3ccc(C(=N)NO)cc3)cc2)c(CN2CCOCC2)s1` [Example 27, N-hydroxy-4-(5-{4-[2-(benzyl-methyl-amino)-5-morpholin-4-ylmethyl-thiazol-4-yl]-phenoxy}-pentyloxy)-benzamidine] showed a Cell survival rate (HOS) of 104%, a Cell survival rate (calvaria) of 106% and an inhibition at 1 µM [1, 2] of 77%. It also gave a Cell survival rate (MC3T3-E1) of 102%.
Work on `N=C(NO)c1ccc(OCCCCCOc2ccc(-c3nc(N4CCOCC4)sc3N3CCSCC3)cc2)cc1` [Example 6, N-hydroxy-4-{5-[4-(2-morpholin-4-yl-5-thiomorpholin-4-yl-thiazol-4-yl)-phenoxy]-pentyloxy}-benzamidine] yielded a Cell survival rate (HOS) of 92%, a Cell survival rate (calvaria) of 106% and an inhibition at 1 µM [1] of 92%. For the same compound, the Cell survival rate (MC3T3-E1) was 90%.
In the case of `Cc1nc(-c2ccc(OCCCCCOc3ccc(C(=N)NO)cc3)cc2)c(CN2CCCCC2)s1` [Example 11, N-hydroxy-4-{5-[4-(2-methyl-5-piperidin-1-ylmethyl-thiazol-4-yl)-phenoxy]-pentyloxy}-benzamidine], the Cell survival rate (HOS) is reported as 101.9%, the Cell survival rate (calvaria) is reported as 95.8% and the inhibition at 1 µM [1, 2] is reported as 92.3%. For the same compound, the Cell survival rate (MC3T3-E1) was 91.9%.
For `CN1CCN(Cc2sc(N(C)CCN3CCOCC3)nc2-c2ccc(OCCCCCOc3ccc(C(=N)NO)cc3)cc2)CC1` [Example 31, N-hydroxy-4-(5-{4-[2-[methyl-(2-morpholin-4-yl-ethyl)-amino]-5-(4-methyl-piperazin-1-ylmethyl)-thiazol-4-yl]-phenoxy}-pentyloxy)-benzamidine], the Cell survival rate (HOS) was 101%, the Cell survival rate (calvaria) was 102% and the inhibition at 1 µM [1, 2] was 88%. It also gave a Cell survival rate (MC3T3-E1) of 110%.
In the case of `Cc1nc(-c2ccc(OCCCCCOc3ccc(C(=N)NO)cc3)cc2)c(CN2CCSCC2)s1` [Example 10, N-hydroxy-4-{5-[4-(2-methyl-5-thiomorpholin-4-ylmethyl-thiazol-4-yl)-phenoxy]-pentyloxy}-benzamidine], the Cell survival rate (HOS) is reported as 101%, the Cell survival rate (calvaria) is reported as 94.5% and the inhibition at 1 µM [1] is reported as 92.9%. For the same compound, the Cell survival rate (MC3T3-E1) was 93.4%.
For `N=C(NO)c1ccc(OCCCCCOc2ccc(-c3nc(N4CCCCC4)sc3N3CCOCC3)cc2)cc1` [Example 52, N-hydroxy-4-{5-[4-(5-morpholin-4-yl-2-piperidin-1-yl-thiazol-4-yl)-phenoxy]-pentyloxy}-benzamidine], the Cell survival rate (HOS) was 97%, the Cell survival rate (calvaria) was 97% and the inhibition at 1 µM [1, 2] was 91%. For the same compound, the Cell survival rate (MC3T3-E1) was 94%.
`CN(C)c1sc(-c2ccccc2)nc1-c1ccc(OCCCCCOc2ccc(C(=N)NO)cc2)cc1` [Example 42, N-hydroxy-4-{5-[4-(5-dimethylamino-2-phenyl-thiazol-4-yl)-phenoxy]-pentyloxy}-benzamidine] showed a Cell survival rate (HOS) of 100%, a Cell survival rate (calvaria) of 98% and an inhibition at 1 µM [1, 2] of 49%. It also gave a Cell survival rate (MC3T3-E1) of 91%.
With `CCN(C)c1nc(-c2ccc(OCCCCCOc3ccc(C(=N)NO)cc3)cc2)c(CN2CCOCC2)s1` [Example 26, N-hydroxy-4-(5-{4-[2-(ethyl-methyl-amino)-5-morpholin-4-ylmethyl-thiazol-4-yl]-phenoxy}-pentyloxy)-benzamidine] the Cell survival rate (HOS) was 102%, the Cell survival rate (calvaria) was 107% and the inhibition at 1 µM [1, 2] was 98%. For the same compound, the Cell survival rate (MC3T3-E1) was 98%.
Work on `Cc1nc(-c2ccc(OCCCCCOc3ccc(C(=N)NO)cc3)cc2)c(CN2CCCC2)s1` [Example 19, N-hydroxy-4-{5-[4-(2-methyl-5-pyrrolidin-1-ylmethyl-thiazol-4-yl)-phenoxy]-pentyloxy}-benzamidine] yielded a Cell survival rate (HOS) of 90%, a Cell survival rate (calvaria) of 97% and an inhibition at 1 µM [1, 2] of 100%. It also gave a Cell survival rate (MC3T3-E1) of 103%.
`Cc1nc(-c2ccc(OCCCCCOc3ccc(C(=N)NO)cc3)cc2)c(CNC(C)(C)C)s1` [Example 15, N-hydroxy-4-(5-{4-[5-(tert-butylamino-methyl)-2-methyl-thiazol-4-yl]-phenoxy}-pentyloxy)-benzamidine] showed a Cell survival rate (HOS) of 98%, a Cell survival rate (calvaria) of 105% and an inhibition at 1 µM [1] of 100%. It also gave a Cell survival rate (MC3T3-E1) of 99%.
Compound `Cc1nc(-c2ccc(OCCCCCOc3ccc(C(=N)NO)cc3)cc2)c(N2CCN(C)CC2)s1` [Example 2, N-hydroxy-4-(5-{4-[2-methyl-5-(4-methyl-piperazin-1-yl)-thiazol-4-yl]-phenoxy}-pentyloxy)-benzamidine] has a Cell survival rate (HOS) of 107.0%, a Cell survival rate (calvaria) of 87.9% and an inhibition at 1 µM [1, 2] of 78.6%. The Cell survival rate (MC3T3-E1) was 91.8%.
Compound `Cc1nc(-c2ccc(OCCCCCOc3ccc(C(=N)NO)cc3)cc2)c(CNCCN2CCOCC2)s1` [Example 17, N-hydroxy-4-[5-(4-{2-methyl-5-[(2-morpholin-4-yl-ethylamino)-methyl]-thiazol-4-yl}-phenoxy)-pentyloxy]-benzamidine] has a Cell survival rate (HOS) of 99%, a Cell survival rate (calvaria) of 93% and an inhibition at 1 µM [1] of 100%. The Cell survival rate (MC3T3-E1) was 103%.
Work on `CCCCNCc1sc(C)nc1-c1ccc(OCCCCCOc2ccc(C(=N)NO)cc2)cc1` [Example 13, N-hydroxy-4-{5-[4-(5-butylaminomethyl-2-methyl-thiazol-4-yl)-phenoxy]-pentyloxy}-benzamidine] yielded a Cell survival rate (HOS) of 106%, a Cell survival rate (calvaria) of 96% and an inhibition at 1 µM [1, 2] of 100%. For the same compound, the Cell survival rate (MC3T3-E1) was 93%.
In the case of `Cc1nc(-c2ccc(OCCCCCOc3ccc(C(=N)NO)cc3)cc2)c(N(C)C)s1` [Example 41], the Cell survival rate (HOS) is reported as 107%, the Cell survival rate (calvaria) is reported as 93% and the “Inhibition of osteoclast differentiation (%)” value [1, 2] is reported as 94%. The Cell survival rate (MC3T3-E1) was 91%.
In the case of `CNc1nc(-c2ccc(OCCCCCOc3ccc(C(=N)NO)cc3)cc2)c(CN2CCOCC2)s1` [Example 50, N-hydroxy-4-{5-[4-(2-methylamino-5-morpholin-4-ylmethyl-thiazol-4-yl)-phenoxy]-pentyloxy}-benzamidine], the Cell survival rate (HOS) is reported as 102%, the Cell survival rate (calvaria) is reported as 90% and the inhibition at 1 µM [1, 2] is reported as 100%. The Cell survival rate (MC3T3-E1) was 91%.
